Key:
[1] = system: antibodies in sera from SARS patients (sera 1a, 1b, 2, 6, 37, 62, London, SARS-yellow, SARS-green); assay type: binding, human; design: Binding of serum 6 to linear peptides of protein X1 of SARS-CoV Urbani / Binding of serum 37 to linear peptides of protein X1 of SARS-CoV Urbani / Binding of serum 6 to looped/cyclic peptide (PEPSCAN-ELISA) / Binding of serum 37 to looped/cyclic peptide (PEPSCAN-ELISA) / Binding of serum 37 to looped/cyclic peptides of protein X1 of SARS-CoV Urbani / Binding of serum 6 to linear peptides of protein X2 / Binding of serum 37 to linear peptides of protein X2 / Binding of serum 37 to looped/cyclic peptides of protein X2 of SARS-CoV Urbani / Binding of serum 6 to linear peptides of protein M of SARS-CoV Urbani / Binding of serum 37 to linear peptides of protein M of SARS-CoV Urbani / Binding of serum 6 to looped/cyclic peptides of protein M of SARS-CoV Urbani / Binding of serum 37 to looped/cyclic peptides of protein M of SARS-CoV Urbani / Binding of serum 6 to linear peptides of protein X3 of SARS-CoV Urbani / Binding of serum 37 to linear peptides of protein X3 of SARS-CoV Urbani / Binding of serum 37 to looped/cyclic peptides of protein X3 of SARS-CoV Urbani / Binding of serum 6 to linear peptides of protein X4 of SARS-CoV Urbani / Binding of serum 37 to linear peptides of protein X4 of SARS-CoV Urbani / Binding of serum 37 to looped/cyclic peptides of protein X4 of SARS-CoV Urbani / Binding of serum 6 to linear peptides of protein X5 of SARS-CoV Urbani / Binding of serum 37 to linear peptides of protein X5 of SARS-CoV Urbani / Binding of serum 37 to looped/cyclic peptides of protein X5 of SARS-CoV Urbani / Binding of serum 6 to linear peptides of protein N of SARS-CoV Urbani / Binding of serum 37 to linear peptides of protein N of SARS-CoV Urbani / Binding of serum 6 to linear peptide (PEPSCAN-ELISA) / Binding of serum 1a to looped/cyclic peptides of protein N of SARS-CoV Urbani / Binding of serum 1b to looped/cyclic peptides of protein N of SARS-CoV Urbani / Binding of serum 2 to looped/cyclic peptides of protein N of SARS-CoV Urbani / Binding of serum 6 to looped/cyclic peptides of protein N of SARS-CoV Urbani / Binding of serum 37 to looped/cyclic peptides of protein N of SARS-CoV Urbani / Binding of serum 62 to looped/cyclic peptides of protein N of SARS-CoV Urbani / Binding of serum London to looped/cyclic peptides of protein N of SARS-CoV Urbani / Binding of serum SARS-green to looped/cyclic peptides of protein N of SARS-CoV Urbani: unit not given here
[2] = system: control sera (pooled serum of ten healthy LUMC hospital workers; commercial negative donor pooled serum from the Dutch bloodbank); assay type: binding, human; design: Binding of Control serum LUMC to linear peptides / Binding of Control serum Blood-bank to linear peptides / Binding of Control serum LUMC to looped peptides / Binding of Control Serum Blood-Bank to Looped peptides / Binding of Control serum LUMC to linear peptides of the protein M of SARS-CoV Urbani / Binding of Control serum Blood-bank to linear peptides of the protein M of SARS-CoV Urbani / Binding of Control serum LUMC to looped peptides of the protein M of SARS-CoV Urbani / Binding of Control Serum Blood-Bank to Looped peptides of the protein M of SARS-CoV Urbani: unit not given here
[3] = system: rabbit serum obtained by immunizing a rabbit with the SARS-CoV strain Frankfurt 1; assay type: binding; design: Binding of a rabbit serum to linear peptides / Binding of a rabbit serum to looped peptides / Rabbit serum linear peptides / Rabbit serum looped peptides / Binding of a rabbit serum to linear peptides of protein N of SARS-CoV Urbani (Rabbit serum linear peptides) / Binding of a rabbit serum to looped/cyclic peptides of protein N of SARS-CoV Urbani (Rabbit serum looped peptides): unit not given here

Sequence | Binding of Control Serum Blood-Bank to Looped peptides [2] | Binding of Control serum Blood-bank to linear peptides [2] | Binding of Control serum LUMC to linear peptides [2] | Binding of Control serum LUMC to looped peptides [2] | Binding of serum 1a to linear peptides of protein X2 [1] | Binding of serum 1a to looped/cyclic peptides of protein X2 of SARS-CoV Urbani [1] | Binding of serum 1b to linear peptides of protein X2 [1] | Binding of serum 1b to looped/cyclic peptides of protein X2 of SARS-CoV Urbani [1] | Binding of serum 2 to linear peptides of protein X2 [1] | Binding of serum 2 to looped/cyclic peptides of protein X2 of SARS-CoV Urbani [1] | Binding of serum 6 to linear peptides of protein X2 [1] | Binding of serum 6 to looped/cyclic peptides of protein X2 of SARS-CoV Urbani [1] | Binding of serum 37 to linear peptides of protein X2 [1] | Binding of serum 37 to looped/cyclic peptides of protein X2 of SARS-CoV Urbani [1] | Binding of serum 62 to linear peptides of protein X2 [1] | Binding of serum 62 to looped/cyclic peptides of protein X2 of SARS-CoV Urbani [1] | Binding of serum London to linear peptides of protein X2 [1] | Binding of serum London to looped/cyclic peptides of protein X2 of SARS-CoV Urbani [1] | Binding of serum SARS-green to linear peptides of protein X2 [1] | Binding of serum SARS-green to looped/cyclic peptides of protein X2 of SARS-CoV Urbani [1] | also measured
TLIVFTSCELYHYQE | 0.7 | 0.7 | 0.8 | 1.0 |  |  |  |  |  |  |  |  |  |  |  |  |  |  |  |  | Binding of serum 1a to linear peptides of protein X4 of SARS-CoV Urbani [1]: 0.8; Binding of serum 1a to looped/cyclic peptides of protein X4 of SARS-CoV Urbani [1]: 0.8; Binding of serum 1b to linear peptides of protein X4 of SARS-CoV Urbani [1]: 0.8; Binding of serum 1b to looped/cyclic peptides of protein X4 of SARS-CoV Urbani [1]: 0.8; Binding of serum 2 to linear peptides of protein X4 of SARS-CoV Urbani [1]: 0.5; Binding of serum 2 to looped/cyclic peptides of protein X4 of SARS-CoV Urbani [1]: 0.8; Binding of serum 6 to linear peptides of protein X4 of SARS-CoV Urbani [1]: 0.6; Binding of serum 6 to looped/cyclic peptides of protein X4 of SARS-CoV Urbani [1]: 0.6; Binding of serum 37 to linear peptides of protein X4 of SARS-CoV Urbani [1]: 0.9; Binding of serum 37 to looped/cyclic peptides of protein X4 of SARS-CoV Urbani [1]: 0.9; Binding of serum 62 to linear peptides of protein X4 of SARS-CoV Urbani [1]: 0.9; Binding of serum 62 to looped/cyclic peptides of protein X4 of SARS-CoV Urbani [1]: 0.8; Binding of serum London to linear peptides of protein X4 of SARS-CoV Urbani [1]: 0.8; Binding of serum London to looped/cyclic peptides of protein X4 of SARS-CoV Urbani [1]: 0.3; Binding of serum SARS-green to linear peptides of protein X4 of SARS-CoV Urbani [1]: 1.1; Binding of serum SARS-green to looped/cyclic peptides of protein X4 of SARS-CoV Urbani [1]: 1.0; Binding of serum SARS-yellow to linear peptides of protein X4 of SARS-CoV Urbani [1]: 0.6; Binding of serum SARS-yellow to looped/cyclic peptides of protein X4 of SARS-CoV Urbani [1]: 0.9; Rabbit serum linear peptides [3]: 0.5; Rabbit serum looped peptides [3]: 0.8
TLVLKMLHSSSLTSL | 0.9 | 0.9 | 0.5 | 0.7 | 0.7 | 0.7 | 0.5 | 0.6 | 0.4 | 0.5 | 0.4 | 1.0 | 0.5 | 0.5 | 0.6 | 0.7 | 0.4 | 1.0 | 0.4 | 0.3 | Binding of serum SARS-yellow to linear peptides of protein X2 [1]: 0.4; Binding of serum SARS-yellow to looped/cyclic peptides of protein X2 of SARS-CoV Urbani [1]: 0.5; Binding of a rabbit serum to linear peptides [3]: 0.2; Binding of a rabbit serum to looped peptides [3]: 0.4
TMSLYMAISPKFTTS | 0.8 | 0.5 | 0.7 | 0.8 | 0.5 | 0.6 | 0.0 | 0.6 | 0.4 | 0.4 | 0.3 | 0.4 | 0.2 | 0.5 | 0.7 | 0.7 | 0.4 | 0.2 | 0.5 | 0.4 | Binding of serum SARS-yellow to linear peptides of protein X2 [1]: 0.0; Binding of serum SARS-yellow to looped/cyclic peptides of protein X2 of SARS-CoV Urbani [1]: 0.6; Binding of a rabbit serum to linear peptides [3]: 0.2; Binding of a rabbit serum to looped peptides [3]: 0.5
TMTTVYHITVSQIQL | 0.6 | 0.6 | 0.8 | 0.5 | 0.6 | 0.4 | 0.2 | 0.4 | 0.4 | 0.3 | 0.5 | 0.2 | 0.7 | 0.4 | 0.3 | 0.5 | 0.4 | 0.2 | 0.2 | 0.3 | Binding of serum SARS-yellow to linear peptides of protein X2 [1]: 0.7; Binding of serum SARS-yellow to looped/cyclic peptides of protein X2 of SARS-CoV Urbani [1]: 0.3; Binding of a rabbit serum to linear peptides [3]: 0.7; Binding of a rabbit serum to looped peptides [3]: 0.4

From patent publication US20070128217A1 (priority 2003, published 2007)
